This passage reports K and binding results from paper PMC10891265 (2024).

The test system of this assay is ATP aptamer (Apt-POSS) (DNA, aptamer) CCACCACGGTGGTGGTGGTTGTGGTGC
As to the kind of experiment: UV absorption at 260 nm after centrifugation, Langmuir fit. Conditions: PBS, 30 min.

`Nc1ncnc2c1ncn2[C@@H]1O[C@H](COP(=O)(O)OP(=O)(O)OP(=O)(O)O)[C@@H](O)[C@H]1O`: the K (0.1 mg particle/mL, aptamer on nanoparticles, apparent) is 46.5 ± 18.5 µM.
As for `Nc1ccn([C@@H]2O[C@H](COP(=O)(O)OP(=O)(O)OP(=O)(O)O)[C@@H](O)[C@H]2O)c(=O)n1`, the binding entry (control nucleotide, captured less than ATP, ATP series 1 μM to 2 mM) is “weak”.
